From patent US9771378B2 (Denali Therapeutics, Inc., priority 2014, dated 2017)

Tested on: Aβ42 (human neuroglioma H4 cells expressing human wild type APP751)
Experiment: In vitro cell screening assay with sandwich ELISA quantification of Aβ42 peptide
Type: cell-based
Settings: H4 cells stably expressing human wild type APP751; Pro293 chemically defined medium; compounds 0.003-10 μM; incubated overnight (16-18 h); supernatant Aβ42 by sandwich ELISA; normalized to DMSO and DAPT; read-out: Aβ42 H4 Prot Fre IC50
In short: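 Aβ42 in supernatants was quantified by sandwich ELISA with C-terminal-specific capture and 4G8-HRP detection, absorbance at 450 nm. Stable APP751-expressing human H4 cells received compound at 0.003-10 μM (0.33% DMSO) overnight (16-18 h). IC50 was derived from percent-of-DMSO-control data by nonlinear variable-slope fit.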

Compound | IC50
Cc1cn(-c2ccc(Nc3ncc4c(n3)N3CCC[C@]3(C)CO4)cc2F)cn1 [Example 293, (R)-N-(3-fluoro-4-(4-methyl-1H-imidazol-1-yl)phenyl)-6a-methyl-6a, 7,8,9-tetrahydro-6H-pyrimido [5,4-b] pyrrolo [1,2-d] [1, 4] oxazin-2-amine] | 276 nM
COc1cc(Nc2ncc3c(n2)N(C)C(c2cc(F)cc(F)c2)CO3)ncc1-n1cnc(C)c1 (single isomer, unassigned; (-)) [Example 220A] | > 3000 nM
COc1ccc(Cl)c(C2COc3cnc(Nc4ccc(-n5cnc(C)c5)c(OC)c4)nc3N2C)c1 (single isomer, unassigned; (+)) [Example 167A] | 22 nM
COc1nc(Nc2ncc3c(n2)N(C)C(c2cc(F)cc(F)c2)CO3)c(F)cc1-c1cnn(C)c1 (racemic) [Example 197] | > 3000 nM
COc1cc(Nc2ncc3c(n2)N(C)C(c2cc(F)cc(F)c2)CO3)ccc1-n1cnc(C)n1 (single isomer, unassigned; (-)) [Example 244B] | 935 nM
COc1nc(Nc2ncc3c(n2)N(C)C(c2cc(F)c(F)c(F)c2)CO3)ccc1-n1cnc(C)c1 (single isomer, unassigned; (+)) [Example 188B] | 275 nM
COc1ccc(C2COc3cnc(Nc4cnc(-n5cnc(C)c5)c(OC)c4)nc3N2C)c(C)c1 (single isomer, unassigned; (-)) [Example 215B] | 96 nM
COc1cc(Nc2ncc3c(n2)N(C)C(c2ccc(F)cc2C)CO3)ccc1-n1cnc(C)c1 (single isomer, unassigned; (-)) [Example 117A] | 140 nM
COc1ccc(C)c(C2COc3cnc(Nc4ccc(-n5cnc(C)c5)c(OC)c4)nc3N2C)c1 (single isomer, unassigned; (+)) [Example 175A] | 11 nM
Cc1cc(-c2ccc(Nc3ncc4c(n3)N(C)C(c3ccc(F)cc3Cl)CO4)cc2F)ccn1 (single isomer, unassigned; (+)) [Example 102A] | 415 nM
Cc1cn(-c2ccc(Nc3ncc4c(n3)N(C)C(c3ccccc3C)CO4)cc2F)cn1 (single isomer, unassigned; (-)) [Example 34B] | 460 nM
COc1cc(Nc2ncc3c(n2)N(C)[C@@H](C2CC2)CO3)ccc1-n1cnc(C)c1 [Example 224] | 22 nM
COc1cc(Nc2ncc3c(n2)N(C)C(c2ccc(F)cc2Cl)CO3)ccc1-n1cnc(C)c1 (racemic) [Example 53] | 37 nM
COc1ccc(Cl)c(C2COc3cnc(Nc4ccc(-n5cnc(C)c5)c(OC)c4)nc3N2C)c1 (racemic) [Example 87] | 42 nM
COc1cc(Nc2ncc3c(n2)N(C)C(c2cc(F)cc(F)c2)CO3)cnc1-n1cnc(C)c1 (single isomer, unassigned; (-)) [Example 189B] | 655 nM
COc1cc(Nc2ncc3c(n2)N(C)C(c2cc(F)c(F)c(F)c2)CO3)ccc1-c1ccnc(C)c1 (single isomer, unassigned; (-)) [Example 39B] | 984 nM
COc1ccc(C2COc3cnc(Nc4cnc(-n5cnc(C)c5)c(OC)c4)nc3N2C)c(C)c1 (single isomer, unassigned; (+)) [Example 215A] | 16 nM
COc1cc(Nc2ncc3c(n2)N(C)C(c2cc(F)cc(F)c2)CO3)ccc1C#N (single isomer, unassigned; (+)) [Example 237B, (+)-4-((7-(3,5-difluorophenyl)-8-methyl-7,8-dihydro-6H-pyrimido [5,4-b] [1, 4]oxazin-2-yl)amino)-2-methoxybenzonitrile] | 226 nM
COc1cc(Nc2ncc3c(n2)N(C)C(c2cc(C(F)(F)F)ccc2Cl)CO3)ccc1-n1cnc(C)c1 (racemic) [Example 88] | 39 nM
Cc1cn(-c2ncc(Nc3ncc4c(n3)N(C)C(C(F)(F)F)CO4)cc2Cl)cn1 (single isomer, unassigned; (+)) [Example 229B] | 2850 nM
Cc1cn(-c2ccc(Nc3ncc4c(n3)N(C)C(c3ccccc3)CO4)cc2)cn1 (racemic) [Example 26] | 121 nM
Cc1cn(-c2ccc(Nc3ncc4c(n3)N(C)C(c3ccccc3OC(F)(F)F)CO4)cc2F)cn1 (single isomer, unassigned; (+)) [Example 64A] | 402 nM
COc1cc(Nc2ncc3c(n2)N(C)C(c2ccc(Cl)cc2C(F)(F)F)CO3)ccc1-n1cnc(C)c1 (single isomer, unassigned; (+)) [Example 112B] | 64 nM
Cc1cn(-c2ccc(Nc3ncc4c(n3)N(C)C(c3ccccc3C(F)(F)F)CO4)cc2F)cn1 (single isomer, unassigned; (+)) [Example 84A] | 203 nM
Cc1cn(-c2ccc(Nc3ncc4c(n3)N(C)C(C)CO4)cc2OC(F)(F)F)cn1 (single isomer, unassigned; (+)) [Example 213B] | > 3000 nM

Compound | IC50
Cc1cc(-c2ccc(Nc3ncc4c(n3)N(C)C(c3ccc(F)cc3)CO4)cc2F)ccn1 (single isomer, unassigned; (-)) [Example 56B] | 3460 nM
Cc1cc(-c2ccc(Nc3ncc4c(n3)N(C)C(c3cc(F)cc(F)c3)CO4)cc2F)ccn1 (single isomer, unassigned; (-)) [Example 41B] | 1260 nM
COc1cc(Nc2ncc3c(n2)N(C)C(C)CO3)ccc1-c1ccnc(C)c1 (single isomer, unassigned; (+)) [Example 110B] | 91 nM
Cc1cc(-c2ccc(Nc3ncc4c(n3)N(C)C(c3ccccc3C)CO4)cc2F)ccn1 (racemic) [Example 32] | 168 nM
COc1cc(Nc2ncc3c(n2)N(C)C(c2ccccc2C(F)(F)F)CO3)ccc1-n1cnc(C)c1 (racemic) [Example 55] | 37 nM
Cc1cc(-c2ccc(Nc3ncc4c(n3)N(C)C(c3ccccc3C)CO4)cc2F)ccn1 (single isomer, unassigned; (+)) [Example 32B] | 131 nM
COc1cc(Nc2ncc3c(n2)N(C)C(C2CCS(=O)(=O)CC2)CO3)ccc1-n1cnc(C)c1 (single isomer, unassigned; (-)) [Example 239A, (−)-4-(2-((3-methoxy-4-(4-methyl-1H-imidazol-1-yl)phenyl)amino)-8-methyl-7,8-dihydro-6H-pyrimido [5,4-b] [1, 4]oxazin-7-yl) tetrahydro-2H-thiopyran 1,1-dioxide] | 407 nM
COc1cc(Nc2ncc3c(n2)N(C)C(c2ccccc2C(F)(F)F)CO3)ccc1-c1ccnc(C)c1 (single isomer, unassigned; (-)) [Example 70A] | 339 nM
COc1cc(Nc2ncc3c(n2)N(C)C(c2cc(F)c(F)c(F)c2)CO3)ccc1-n1cnc(C)c1 (single isomer, unassigned; (+)) [Example 40B] | 11 nM
Cc1cc(-c2ccc(Nc3ncc4c(n3)N(C)C(c3cc(F)c(F)c(F)c3)CO4)cc2)ccn1 (single isomer, unassigned; (+)) [Example 37A] | 59 nM
CN1c2nc(Nc3ccc(C#N)cc3)ncc2OCC1c1cc(F)cc(F)c1 (single isomer, unassigned; (-)) [Example 233B, (−)-4-((7-(3,5-difluorophenyl)-8-methyl-7,8-dihydro-6H-pyrimido [5,4-b] [1, 4]oxazin-2-yl)amino) benzonitrile] | > 3000 nM
COc1cc(Nc2ncc3c(n2)N(C)C(c2cc(F)c(F)cc2F)CO3)cnc1-n1cnc(C)c1 (single isomer, unassigned; (-)) [Example 181A] | 9 nM
CN1c2nc(Nc3ccc(C#N)cc3)ncc2OCC1c1cc(F)cc(F)c1 (single isomer, unassigned; (+)) [Example 233A, (+)-4-((7-(3,5-difluorophenyl)-8-methyl-7,8-dihydro-6H-pyrimido [5,4-b] [1, 4]oxazin-2-yl)amino) benzonitrile] | 888 nM
Cc1cn(-c2ccc(Nc3ncc4c(n3)N(C)C3(CC3)CO4)cc2F)cn1 [Example 258] | 324 nM
Cc1cc(-c2ccc(Nc3ncc4c(n3)N(C)C(Cc3ccccc3)CO4)cc2F)ccn1 (single isomer, unassigned; (+)) [Example 57A] | 118 nM
Cc1cn(-c2ccc(Nc3ncc4c(n3)N(C)C(C(F)(F)F)CO4)cc2C#N)cn1 (single isomer, unassigned; (+)) [Example 232A, (+)-2-(4-methyl-1H-imidazol-1-yl)-5-((8-methyl-7-(trifluoromethyl)-7,8-dihydro-6H-pyrimido [5,4-b] [1, 4]oxazin-2-yl)amino) benzonitrile] | 280 nM
Cc1cn(-c2ccc(Nc3ncc4c(n3)N(C)C(C)(C)CO4)cc2F)cn1 [Example 255] | 488 nM
COc1cc(Nc2ncc3c(n2)N(C)C(c2ccccc2OC(F)(F)F)CO3)ccc1-c1ccnc(C)c1 (single isomer, unassigned; (-)) [Example 62A] | 339 nM
COc1cc(Nc2ncc3c(n2)N(C)C2(CCCC2)CO3)cnc1-n1cnc(C)c1 [Example 259] | 73 nM
COc1cc(Nc2ncc3c(n2)N(C)C(c2ccccc2C(F)(F)F)CO3)ccc1-n1cnc(C)c1 (single isomer, unassigned; (-)) [Example 55A] | 102 nM
COc1nc(Nc2ncc3c(n2)N(C)C(C)CO3)ccc1-c1cnn(C)c1 (racemic) [Example 195] | > 3000 nM
COc1cc(Nc2ncc3c(n2)N(C)C(c2ccc(Cl)cc2C(F)(F)F)CO3)ccc1-n1cnc(C)c1 (single isomer, unassigned; (-)) [Example 112A] | 231 nM
COc1cc(Nc2ncc3c(n2)N(C)C(c2ccc(F)cc2F)CO3)ccc1-n1cnc(C)c1 (single isomer, unassigned; (+)) [Example 48B] | 20 nM
COc1cc(Nc2ncc3c(n2)N2CCCC2CO3)ccc1-n1cnc(C)c1 (single isomer, unassigned; (-)) [Example 290A, (−)-N-(3-methoxy-4-(4-methyl-1H-imidazol-1-yl)phenyl)-6a, 7,8,9-tetrahydro-6H-pyrimido [5,4-b] pyrrolo [1,2-d] [1, 4] oxazin-2-amine] | 71 nM
COc1cc(Nc2ncc3c(n2)N(C)[C@@H](CC2CC2)CO3)cnc1-n1cnc(C)c1 [Example 218] | 39 nM
